Test results taken from patent publication US20230159436A1, “APPLICATIONS OF AMIDE ANALOGS OF TRITERPENES IN CURES OF CANCER AND OTHER DISEASES” (Pacific Arrow Limited, priority 2021, published 2023).
“And” between values parts separate entries of the source, which are not always exact repeats. Equal entries are not always repeated.

Legend:
[1] = test system: HeLa; test: MTT assay, cervix (HeLa); format: cell-based
Protocol: (§1) Cells. HTB-9 (bladder), HeLa-S3 (cervix), DU145 (prostate), H460 (lung), MCF-7 (breast), K562 (leukemia), HCT116 (colon), HepG2 (liver), U2OS (bone), T98G (brain), SK-MEL-5 (Skin) and OVCAR 3, ES2 (ovary), Pancreas (Capan), Mouth (KB), Kidney (A498).
(§2) MTT Assay. The procedure for MTT assay followed the method described by Carmichael et al. (1987) with modifications. The cells were seeded into a 96-well plate at for 24 hours before drug-treatment. The cells were then exposed to the drugs for 48, 72, or 96 hours. After the drug-treatment, MTT (0.5 mg/mL) was added to cultures and incubated for an hour. The formazan (product of the reduction of tetrazolium by viable cells) formed and was dissolved with DMSO and the O.D. at 490 nm, and was measured by an ELISA reader. The MTT level of the cells before drug-treatment was also measured (T0). The % cell-growth (% G) is calculated as: % G=(TD−T0/TC−T0)×100(1), where TC or TD represents O.D. readings of control or drug-treated cells.
(§3) When T0>TD, then the cytotoxicity (LC) expressed as % of the control is calculated as: % LC=(TD−T0/T0)×100(2).

[2] = test system: H460 cells; test: MTT assay, lung (H460); format: cell-based, human
Protocol: as §1, §2, §3
A. Cells • H460 cells are derived from a Human Lung large cell carcinoma. Cells were grew in RPMI 1640 medium supplemented with 10% FCS, antibiotics and glutamine. 5000 cells were seeded in a well (96-welled plate) for one day before drug-treatment
B. Drug Treatment: • Drug: Tig-S (stored as a 1000× stock solution in DMSO) was used. • Drug concentration used: from 0.15-20 ug/ml. • Drug-treatment was carried out for 1, 2 and 4 days. For the 4 days incubation, cells were fed with fresh medium (with drug) on day 2.
C. At the end of the drug-treatment, cytotoxic test was performed with MTT assay.

[3] = test system: OVCAR3; test: MTT assay, ovary (OVCAR3); format: cell-based
Protocol: as §1, §2, §3

[4] = test system: DU145; test: MTT assay, prostate (DU145); format: cell-based
Protocol: as §1, §2, §3

[5] = test system: WI38 cells; test: MTT assay, normal lung fibroblast (WI38); format: cell-based, human
Protocol: as §2, §3
(§4) Experiment 30: A Comparison of Non-Cancerous with Cancer Cells: • Method: A. Cells • WI38 is a Normal Lung fibroblast. Cells were grew in MEM medium supplemented with 10% FCS, antibiotics and glutamine. 20K cells were seeded per well (96-welled plate) for one day before drug-treatment • ES2 is a Ovary Clear cells carcinoma. Cells were grew in RPMI-1640 medium supplemented with 10% FCS, antibiotics and glutamine. 10K cells were seeded per well (96-welled plate) for one day before drug-treatment.
(§5) B. Drug Treatment: • Drug: Tig-S. stored as 1000× stock solution in DMSO. • Drug concentration used: from 0.15-20 ug/ml. • Drug-treatment was carried out for 2 days (ES2) or 6 days (WI38). For the 6 days incubation, cells were fed with fresh medium (with drug) on day 3 and 5.
(§6) C. At the End of the Drug-Treatment, Cytotoxic Test was Performed with MTT Assay.

[6] = test system: ES2 cells; test: MTT assay, ovary (ES2); format: cell-based, human
Protocol: as §1, §2, §3, §4, §5, §6

[7] = test system: Capan cells; test: MTT assay, pancreas (Capan); format: cell-based, human
Protocol: as §1, §2, §3
A. Cells: Capan cells are derived from Human pancreas carcinoma (pancreas). Cells were grew in RPMI 1640 medium supplemented with 10% FCS, antibiotics and glutamine. […]
C. […] The percentage of drug-treated cells' growth as compared to those of the no drug control is determined.

[8] = Pharmacokinetic (PK) study: blood from cutting tail; format: in vivo, mice; conditions: IP 100 mg/kg, estimated
Protocol: Pharmacokinetic (PK) Study: Blood from Cutting Tail • Method: • Drug-Treatment: • Mice: CD-1 female mice (6-7 weeks, 23-25 g) • mice were injected (IP) with Test drug sample (10 mg/ml, in […] at a dose of 100 mg/kg. • Blood was obtained from a mouse by cut-tail at 0.5, 2 and 4 hours after drug treatments. • At 24 hours after the drug treatment, mice were anesthetized with isoflurane and blood was obtained with cardiac puncture. Animals were then euthanized by cervical dislocation. • Plasma Isolation: • Blood (50-100 ul) was centrifuged (2000 g, 15 minutes). Plasma was collected from the top layer. • 1 volume of plasma was mixed with 3 volume of acetonitrile/0.005% TFA. Mixture was stored in refrigerator overnight. • Sample was centrifuged (16000 g,10 minutes). Supernatant (called Plasma in 75% AN/TFA soluble fractions) was collected and subjected to HPLC analysis. • HPLC Analysis Conditions: • Column: C18 μBondapak • Solvent: 60% acetonitrile/0.005% TFA (Trifluoroacetic acid) • Gradient: isocratic • Flow rate and run time: 1 ml/min for 30 minutes • Detection wavelength: 207 nm • O.D. range: 0.05 full scale • Calculation: • Standard cures of Test Drug is constructed (Area/3000K=1 ug Test Drug) • Area of Test Drug Peak from Sample is Recorded • Amount of Test Drug was calculated according to standard cures.

[9] = test system: cancer growth, cancer invasion, cells invasion or cancer cell invasion; test: Inhibition of cancer growth and invasion (anti-cancer activity); format: cell-based
Description: The program is based on the purification methods and biological assays including the MTT assay as described in International Application No. PCT/US05/31900, filed Sep. 7, 2005, U.S. Ser. No. 11/289,142, filed Nov. 28, 2005, and U.S. Ser. No. 11/131,551, filed May 17, 2005, and PCT/US2008/002086, 1188-ALA-PCT, filed Feb. 15, 2008, Ser. No. 12/344,682, 1020-B1-US, filed Dec. 29, 2008, US009499577B2, filed Jun. 24, 2014. The details of Analysis of gene expression of ES2 cells after Y-treatment by Microarray, Data Analysis Methods and Western blot in PCT/US2008/002086, 1188-ALA-PCT, filed Feb. 15, 2008, and the cell invasion experiments methods in International Application PCT/US2010/0042240, filed Jul. 16, 2010.

SMILES: CC=C(C)C(=O)OCC1(C)C(O)CCC2(C)C1CCC1(C)C2CC=C2C3CC(C)(C)C(O)C(O)C3(COC(=O)C(C)=CC)C(O)CC21C (stereo not drawn) [Tig-R, 24,28-O-Tigloyl-3β,16α,21β,22α,24β,28-hexahydroxyolean-12-ene]
- IC50 of cervix (HeLa) [1]: 5 µg/mL
- IC50 of lung (H460) [2]: 4.8 µg/mL
- IC50 of ovary (OVCAR3) [3]: 5.8 µg/mL
- IC50 of prostate (DU145) [4]: 3.6 µg/mL
- IC50 in normal human fibroblast cells (WI38) [5]: 10 to 15 µg/mL
- IC50 of ovary (ES2) [6]: 2.8 ug/ml and about 2.8 ug/ml
- IC50 of pancreas (Capan) [7]: 2.4 µg/mL
- half-life [8]: about one
- anti-cancer activity [9]: have anti cancer activities

SMILES: CC=C(C)C(=O)OCC1(C)C(O)CCC2(C)C1CCC1(C)C2CC=C2C3CC(C)(C)C(OC(=O)C(C)=CC)C(O)C3(CO)C(O)CC21C (stereo not drawn) [Tig-S]
- IC50, inhibition of lung H460 cells growth ([2]; 4 days): 3 µg/mL
- IC50, inhibition of H460 cells' growth ([2]; Experiment 32, drug-treatment 1, 2 and 4 days): 3 µg/mL
- drug concentration beyond which minimum cells growth inhibition was observed ([2]; H460): > 5 µg/mL
- dead cells ([2]; H460, drug concentration 20 ug/ml): No dead cell was found
- IC50, inhibition of lung H460 cells growth ([2]; one day): 3.4 µg/mL
- IC50, inhibition of ovarian cancer (OCAR3) cells' growth [3]: 2.5 µg/mL
- IC50 of ovary (OVCAR3) [3]: 6.5
- IC50, inhibition of WI38 cells ([5]; 6 days): 1.5 µg/mL
- % of the control cell growth ([5]; WI38, at 10 ug/ml): about 55%
- MTT OD, % of the original value ([5]; WI38, at 20 ug/ml): about 90%
- cell lost or dead ([5]; WI38, at 20 ug/ml): about 10%
- cells died ([5]; WI38, with 10 ug/ml): 10%
- IC50, inhibition of ES2 cells ([6]; 2 days): 0.3 µg/mL
- IC100 (100% inhibition of growth, no cell lost) ([6]; ES2): 0.16 to 0.3 µg/mL and 0.15 to 0.3 µg/mL
- % of the control cell growth ([6]; ES2, at 10 ug/ml): 10%
- MTT OD, % of the original value ([6]; ES2, at 10 ug/ml): 12%
- IC50, inhibition of pancreas cancer (Capan) cells' growth ([7]; drug-treatment 3 days): about 1 ug/ml
- anti-cancer activity [9]: have anti cancer activities
